Measurements taken from a compilation of properties of binary mixtures (doi:10.1016/j.jct.2017.12.009).

Assay: xn = mol fraction of the nth substance listed
Conditions: 101 kPa

`CCCC[N+]1(C)CCCC1.O=S(=O)([O-])C(F)(F)F` + CO showed a speed of sound (278.15 K, x1 = 0.0501) of 1228 m/s, a speed of sound (278.15 K, x1 = 0.1004) of 1274 m/s and a speed of sound (278.15 K, x1 = 0.1503) of 1311 m/s. It also gave a speed of sound (278.15 K, x1 = 0.3002) of 1389 m/s, a speed of sound (278.15 K, x1 = 0.3996) of 1421 m/s and a speed of sound (278.15 K, x1 = 0.4998) of 1445 m/s. The speed of sound (278.15 K, x1 = 0.6006) was 1463 m/s, the speed of sound (278.15 K, x1 = 0.7015) was 1478 m/s and the speed of sound (278.15 K, x1 = 0.8013) was 1490 m/s. For the same molecule, the speed of sound (278.15 K, x1 = 0.8427) was 1495 m/s, the speed of sound (278.15 K, x1 = 0.9008) was 1501 m/s and the speed of sound (278.15 K, x1 = 1) was 1513 m/s. It also gave a speed of sound (288.15 K, x1 = 0.0501) of 1198 m/s, a speed of sound (288.15 K, x1 = 0.2002) of 1316 m/s and a speed of sound (288.15 K, x1 = 0.3002) of 1363 m/s. It also gave a speed of sound (288.15 K, x1 = 0.3996) of 1396 m/s, a speed of sound (288.15 K, x1 = 0.4998) of 1420 m/s and a speed of sound (288.15 K, x1 = 0.6006) of 1439 m/s. The speed of sound (288.15 K, x1 = 0.7015) was 1453 m/s, the speed of sound (288.15 K, x1 = 0.8013) was 1465 m/s and the speed of sound (288.15 K, x1 = 0.8427) was 1470 m/s. It also gave a speed of sound (288.15 K, x1 = 0.9008) of 1476 m/s, a speed of sound (288.15 K, x1 = 0.9514) of 1480 m/s and a speed of sound (298.15 K, x1 = 0.0501) of 1168 m/s. The speed of sound (298.15 K, x1 = 0.1503) was 1257 m/s, the speed of sound (298.15 K, x1 = 0.3002) was 1338 m/s and the speed of sound (298.15 K, x1 = 0.3996) was 1371 m/s. For the same molecule, the speed of sound (298.15 K, x1 = 0.4998) was 1396 m/s, the speed of sound (298.15 K, x1 = 0.6006) was 1415 m/s and the speed of sound (298.15 K, x1 = 0.7015) was 1429 m/s. For the same molecule, the speed of sound (298.15 K, x1 = 0.8427) was 1446 m/s, the speed of sound (298.15 K, x1 = 0.9008) was 1452 m/s and the speed of sound (298.15 K, x1 = 0.9514) was 1456 m/s. For the same molecule, the speed of sound (298.15 K, x1 = 1) was 1461 m/s, the speed of sound (308.15 K, x1 = 0.0501) was 1138 m/s and the speed of sound (308.15 K, x1 = 0.1004) was 1190 m/s. The speed of sound (308.15 K, x1 = 0.1503) was 1231 m/s, the speed of sound (308.15 K, x1 = 0.2002) was 1264 m/s and the speed of sound (308.15 K, x1 = 0.3002) was 1313 m/s. For the same molecule, the speed of sound (308.15 K, x1 = 0.4998) was 1372 m/s, the speed of sound (308.15 K, x1 = 0.7015) was 1406 m/s and the speed of sound (308.15 K, x1 = 0.8013) was 1418 m/s. It also gave a speed of sound (308.15 K, x1 = 0.8427) of 1423 m/s, a speed of sound (308.15 K, x1 = 0.9008) of 1429 m/s and a speed of sound (308.15 K, x1 = 0.9514) of 1433 m/s. The speed of sound (308.15 K, x1 = 1) was 1438 m/s, the speed of sound (318.15 K, x1 = 0.0501) was 1110 m/s and the speed of sound (318.15 K, x1 = 0.1004) was 1163 m/s. It also gave a speed of sound (318.15 K, x1 = 0.1503) of 1205 m/s, a speed of sound (318.15 K, x1 = 0.2002) of 1239 m/s and a speed of sound (318.15 K, x1 = 0.3002) of 1289 m/s. It also gave a speed of sound (318.15 K, x1 = 0.3996) of 1324 m/s, a speed of sound (318.15 K, x1 = 0.4998) of 1349 m/s and a speed of sound (318.15 K, x1 = 0.6006) of 1368 m/s. The speed of sound (318.15 K, x1 = 0.7015) was 1383 m/s, the speed of sound (318.15 K, x1 = 0.8427) was 1400 m/s and the speed of sound (318.15 K, x1 = 0.9008) was 1406 m/s. It also gave a speed of sound (318.15 K, x1 = 0.9514) of 1411 m/s and a speed of sound (318.15 K, x1 = 1) of 1415 m/s.

Molecule `CO` + CCCC[N+]1(C)CCCC1.O=S(=O)([O-])C(F)(F)F has a speed of sound (278.15 K, x2 = 0) of 1169 m/s and a speed of sound (288.15 K, x2 = 0) of 1135 m/s.
